According to paper PMC4370192, “Discovery of Specific Inhibitors for Intestinal E. coli β-Glucuronidase through In Silico Virtual Screening” (The Scientific World Journal, 2015):

What was measured:
[1] = molecular target: T1, E. coli β-glucuronidase (eβG) (Escherichia coli, UniProt P05804); experiment: In vitro βG-activity assay (pNPG hydrolysis), eβG; type: biochemical
T1 construct: histidine tag (N); made in house; host or cells: E. coli BL21 (DE3)
Procedure: (§1) Plasmid pRESTB containing βG gene and a histidine tag at the N-terminus was constructed as described. Recombinant βG (human and E. coli) was produced by isopropyl β-D-thiogalactopyranoside (IPTG) induction of BL21 (DE3) bacteria. βG was purified from bacterial supernatants by affinity chromatography on nickels Sepharose 6 Fast Flow (GE Healthcare). The column was washed by phosphate-buffered saline (PBS), with 50 mM imidazole, and βG was eluted by PBS with 250 mM imidazole. The purified βG was desalted on a Sephadex G-25 column equilibrated with PBS and stored at −80°C.
The candidate compounds were purchased from SPECS (The Netherlands). Each candidate was provided as a solid power and dissolved in 100% DMSO (Sigma-Aldrich) to 10 mM as stock. Candidates were screened for their inhibition specificity of eβG versus hβG, which were conducted at pH 7.3 or pH 5.4, in triplicate, respectively. 40 μL purified βG was treated with 10 μL compound solution at 37°C for 30 min and sequentially incubated with 50 μL of pNPG (Sigma-Aldrich) at 37°C for 30 min. Reactions were quenched with 5 μL of 2 N sodium hydroxide (Sigma-Aldrich). Each reaction consisted of 3.75 ng purified βG, 50 μM compound, and 5 mM pNPG in PBS containing 10% DMSO and 0.05% BSA (Sigma-Aldrich). βG-activities were measured by color development of pNP detected on a microplate reader at OD 405 nm. […] For IC50 determination, compounds at various concentrations (100 μM to 0.001 μM) were added.
Supplementary file 740815.f1.pdf: Fifty-nine candidate compounds were acquired from the initial virtually screening which was designed to target the bacterial loop of eβG and its active site. The docking energy scores of 59 candidate compounds measured by the DOCK program are -43 to -55 kcal/mol. (Table S1) The candidate compounds were purchased from SPECS (Zoetermeer, The Netherlands). Each candidate was rovided as a solid power and dissolved in 100% DMSO (Sigma-Aldrich, MO, USA) to 10 mM as stock. Candidates were screening for their inhibition specificity of eβG verse hβG, which were conducted at pH 7.3 or pH 5.4 in triplicate, respectively. 40 µL purified βG was treated with 10 µL compound solution at 37 °C for 30 min, and sequentially incubated with 50 µL of pNPG (Sigma-Aldrich) at 37 °C for 30 min. Reactions were quenched with 5 µL of 2 N sodium hydroxide (Sigma-Aldrich). Each reaction consisted of 3.75 ng purified βG, 50 µM compound, and 5 mM pNPG in PBS containing 10% DMSO and 0.05% BSA (Sigma-Aldrich). βG-activities were measured by color development of pNP detected on a microplate reader at OD 405 nm. […] Especially, the inhibiting ability against eβG activity was >95% in 7 candidates of eβG specific inhibitors (Table S1).
(§2) Fifty-nine candidate compounds were acquired from the initial virtually screening which was designed to target the bacterial loop of eβG and its active site. The docking energy scores of 59 candidate compounds measured by the DOCK program are -43 to -55 kcal/mol. (Table S1) The candidate compounds were purchased from SPECS (Zoetermeer, The Netherlands). Each candidate was provided as a solid power and dissolved in 100% DMSO (Sigma-Aldrich, MO, USA) to 10 mM as stock. Candidates were screening for their inhibition specificity of eβG verse hβG, which were conducted at pH 7.3 or pH 5.4 in triplicate, respectively. 40 μL purified βG was treated with 10 μL compound solution at 37 °C for 30 min, and sequentially incubated with 50 μL of pNPG (Sigma-Aldrich) at 37 °C for 30 min. Reactions were quenched with 5 μL of 2 N sodium hydroxide (Sigma-Aldrich). Each reaction consisted of 3.75 ng purified βG, 50 μM compound, and 5 mM pNPG in PBS containing 10% DMSO and 0.05% BSA (Sigma-Aldrich). βG-activities were measured by color development of pNP detected on a microplate reader at OD 405 nm. […]
percent of βG activity compared with the untreated control.
Especially, the inhibiting ability against eβG activity was >95% in 7 candidates of eβG specific inhibitors (Table S1).
Table S1. […]

[2] = molecular target: T2, human βG (hβG) (Homo sapiens, UniProt P08236); experiment: In vitro βG-activity assay (pNPG hydrolysis), hβG; type: biochemical
T2 construct: histidine tag (N); made in house; host or cells: E. coli BL21 (DE3)
T2 sequence (P08236 23-651): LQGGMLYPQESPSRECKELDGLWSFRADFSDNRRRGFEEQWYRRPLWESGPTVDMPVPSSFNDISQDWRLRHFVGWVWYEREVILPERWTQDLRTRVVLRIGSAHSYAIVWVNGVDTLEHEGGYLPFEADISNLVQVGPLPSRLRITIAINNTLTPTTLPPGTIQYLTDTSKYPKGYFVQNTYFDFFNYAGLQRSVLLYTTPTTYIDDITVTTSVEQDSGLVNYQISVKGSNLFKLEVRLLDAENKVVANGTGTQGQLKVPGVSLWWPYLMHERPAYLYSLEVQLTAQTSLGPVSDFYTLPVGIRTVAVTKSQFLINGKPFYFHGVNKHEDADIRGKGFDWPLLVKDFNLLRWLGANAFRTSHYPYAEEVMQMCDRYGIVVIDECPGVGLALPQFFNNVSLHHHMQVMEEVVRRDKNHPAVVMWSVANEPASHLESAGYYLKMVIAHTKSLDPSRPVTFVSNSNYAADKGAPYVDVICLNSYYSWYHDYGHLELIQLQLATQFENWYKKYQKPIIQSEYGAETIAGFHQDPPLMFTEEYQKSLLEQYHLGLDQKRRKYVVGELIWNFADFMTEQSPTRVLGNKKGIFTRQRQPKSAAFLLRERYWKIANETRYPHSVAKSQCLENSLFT
Procedure: as §1
The candidate compounds were purchased from SPECS (The Netherlands). Each candidate was provided as a solid power and dissolved in 100% DMSO (Sigma-Aldrich) to 10 mM as stock. Candidates were screened for their inhibition specificity of eβG versus hβG, which were conducted at pH 7.3 or pH 5.4, in triplicate, respectively. 40 μL purified βG was treated with 10 μL compound solution at 37°C for 30 min and sequentially incubated with 50 μL of pNPG (Sigma-Aldrich) at 37°C for 30 min. Reactions were quenched with 5 μL of 2 N sodium hydroxide (Sigma-Aldrich). Each reaction consisted of 3.75 ng purified βG, 50 μM compound, and 5 mM pNPG in PBS containing 10% DMSO and 0.05% BSA (Sigma-Aldrich). βG-activities were measured by color development of pNP detected on a microplate reader at OD 405 nm.
as §2, with “(Table” for “Fifty-nine candidate compounds were acquired from the initial virtually screening which was designed to target the bacterial loop of eβG and its active site. The docking energy scores of 59 candidate compounds measured by the DOCK program are -43 to -55 kcal/mol. (Table”, “rovided” for “provided”, “µL” for “μL”, “µM” for “μM”
candidate compounds were purchased from SPECS (Zoetermeer, The Netherlands). Each candidate was provided as a solid power and dissolved in 100% DMSO (Sigma-Aldrich, MO, USA) to 10 mM as stock. Candidates were screening for their inhibition specificity of eβG verse hβG, which were conducted at pH 7.3 or pH 5.4 in triplicate, respectively. 40 μL purified βG was treated with 10 μL compound solution at 37 °C for 30 min, and sequentially incubated with 50 μL of pNPG (Sigma-Aldrich) at 37 °C for 30 min. Reactions were quenched with 5 μL of 2 N sodium hydroxide (Sigma-Aldrich). Each reaction consisted of 3.75 ng purified βG, 50 μM compound, and 5 mM pNPG in PBS containing 10% DMSO and 0.05% BSA (Sigma-Aldrich). βG-activities were measured by color development of pNP detected on a microplate reader at OD 405 nm.

[3] = 50 μM compound, pH 7.3, percent of activity vs untreated control
[4] = pH 5.4, percent of activity vs untreated control
[5] = read-out: inhibition of eβG activity

T1 sequence (P05804 whole entry): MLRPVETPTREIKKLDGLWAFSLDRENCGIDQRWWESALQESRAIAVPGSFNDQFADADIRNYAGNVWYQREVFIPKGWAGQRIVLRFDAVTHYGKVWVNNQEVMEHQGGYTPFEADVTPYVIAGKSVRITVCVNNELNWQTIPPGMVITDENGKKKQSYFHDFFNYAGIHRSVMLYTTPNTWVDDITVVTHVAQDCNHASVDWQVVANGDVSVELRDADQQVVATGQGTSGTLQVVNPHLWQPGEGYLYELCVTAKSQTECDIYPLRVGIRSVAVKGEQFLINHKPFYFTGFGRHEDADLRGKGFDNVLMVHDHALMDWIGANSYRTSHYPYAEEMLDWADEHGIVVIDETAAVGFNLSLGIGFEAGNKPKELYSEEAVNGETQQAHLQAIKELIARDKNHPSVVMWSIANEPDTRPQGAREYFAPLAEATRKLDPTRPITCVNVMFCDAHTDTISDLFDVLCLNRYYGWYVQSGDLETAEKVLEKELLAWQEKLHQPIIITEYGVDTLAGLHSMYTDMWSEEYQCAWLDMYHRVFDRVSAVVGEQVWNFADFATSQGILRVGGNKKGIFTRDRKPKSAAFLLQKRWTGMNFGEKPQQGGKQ

| Compound | eβG activity (%) with 50 μM compound [1, 3] [%] | hβG activity (%) with 50 μM compound [2, 4] [%] | also measured |
| --- | --- | --- | --- |
| CC1(C)CC(O)C(C(O)c2cccc([N+](=O)[O-])c2)C(C)(C)N1 (centres unmarked) [Compound 4021] | 28.56 | 103.06 |  |
| O=C(O)C1CC=CCC1C(=O)Nc1ccc2ccccc2c1 (centres unmarked) [Compound 4043] | 32.98 | 81.24 |  |
| O=C1C=C(Nc2cccc3cc(S(=O)(=O)O)ccc23)c2ccccc2C1=O [Compound 4277] | 44.37 | 115.21 |  |
| O=C(O)c1ccc(NS(=O)(=O)c2ccc(Br)cc2)cc1O [Compound 4465] | 10.04 | 99.50 |  |
| Cc1cc(NS(=O)(=O)c2ccc(NC(=O)c3cc(Cl)ccc3[N+](=O)[O-])cc2)nc(C)n1 [Compound 5003] | 17.02 | 105.54 |  |
| N#Cc1cc2[nH]c(=O)c(=O)[nH]c2cc1[N+](=O)[O-] [Compound 5012] | 14.96 | 108.51 |  |
| Cn1c(O)c(C=NC(Cc2c[nH]c3ccccc23)C(=O)O)c(=O)n(C)c1=O (centres unmarked) [Compound 5033] | 9.33 | 116.12 |  |
| O=C(O)C1CC=CCC1C(=O)Nc1ccc(Br)c2cccnc12 (centres unmarked) [Compound 5244] | 26.21 | 44.38 |  |
| CC1=C(C)CC(C(=O)Nc2c(C)cccc2C)C(C(=O)O)C1 (centres unmarked) [Compound 5259] | 34.05 | 106.20 |  |
| N/C(=N\c1nc2c(c(=O)[nH]1)CCC2)Nc1ccccc1 [Compound 5905] | 24.93 | 104.96 |  |
| CC1=NN(c2ccc(Cl)cc2)C(=O)/C1=C\N1CCN(C)CC1 [Compound 6003] | 9.76 | 93.06 |  |
| N=c1c2sc3nc4ccccc4n3c2ncn1N [Compound 6015] | 10.40 | 72.07 |  |
| O=C(NC(NCc1ccco1)C(Cl)(Cl)Cl)c1ccc(Br)cc1 (centres unmarked) [Compound 6019] | 33.83 | 104.96 |  |
| COc1cc(C(=O)N2CCNCC2)cc(OC)c1OC [Compound 6368] | 44.87 | 116.03 |  |
| O=C(Nc1ccc(S(=O)(=O)N2CCCC2)cc1)c1[nH]ncc1[N+](=O)[O-] [Compound 6843] | 27.49 | 108.76 |  |
| COc1ccc(N2C(=O)CC(NC3CCCCNC3=O)C2=O)cc1 (centres unmarked) [Compound 7007] | 44.30 | 105.79 |  |
| N=C1C(c2nc3ccccc3c(=O)[nH]2)=C(O)CN1c1cccc(Cl)c1 [Compound 7036] | 6.70 | 95.45 |  |
| CC(=O)Nc1ccc(S(=O)(=O)Oc2ccc([N+](=O)[O-])cc2)cc1 [Compound 7100] | 20.58 | 112.56 |  |
| CC(C)(C)c1ccc(S(=O)(=O)/N=C2\C=CC(=O)c3ccccc32)cc1 [Compound 7145] |  |  | activity at 50 µM [1, 3]: 1%; inhibition at 10 µM [1, 5]: 55%; inhibition at 50 µM [1, 5]: > 95%; IC50 ([1]; recombinant eβG, pNPG substrate, pH 7.3): 31.6 µM; effect on hβG activity ([2]; 50 μM compound): does not hamper hβG activity; activity at 50 µM ([2]; 50 μM compound, pH 5.4, percent of activity vs untreated control): 120% |
| COc1ccc(S(=O)(=O)NCCN2CCOCC2)c2ccccc12 [Compound 7670] | 43.16 | 93.31 |  |
| CN(C)CCCNS(=O)(=O)c1ccc2c3c(cccc13)C(=O)N2 [Compound 8010] | 23.58 | 98.84 |  |
| NC1=C2N=C(c3ccc([N+](=O)[O-])cc3)NN2NN1 [Compound 8013a] | 60.40 | 100.33 |  |
| O=[N+]([O-])C12CNCC([N+](=O)[O-])(CNC1)C2 [Compound 8013b] | 32.91 | 93.72 |  |
